Test results: article PMC7588595, “Small-molecule active pharmaceutical ingredients of approved cancer therapeutics inhibit human aspartate/asparagine-β-hydroxylase” (Bioorganic & Medicinal Chemistry, 2020)
Structures can show the parent of a compound that is named as a salt. Where two headings read alike, the source gives them in different places.

What was measured:
[1] = target: T1, human AspH (His6-AspH315–758) (Homo sapiens, UniProt Q12797); assay: SPE-MS AspH inhibition assay (hFX-CP101-119 substrate hydroxylation); type: biochemical; conditions: for AspH inhibition at 20 μM / inhibition at 20 µM: 20 μM fixed inhibitor, relative to DMSO and 2,4-PDCA controls; for remaining activity at 20 µM: 20 μM fixed inhibitor concentration; for Plate 1 (% inhibition): 384-well Plate 1; for Hill coefficient of AspH inhibition curves: dose-response curves of SPE-MS AspH inhibition assay
T1 construct: N-Terminally His6-tagged human AspH315–758 (His6-AspH315–758) was produced in Escherichia coli BL21 (DE3) cells; made in house; host or cells: Escherichia coli BL21 (DE3), pET-28a(+) vector
T1 sequence (Q12797 315-758): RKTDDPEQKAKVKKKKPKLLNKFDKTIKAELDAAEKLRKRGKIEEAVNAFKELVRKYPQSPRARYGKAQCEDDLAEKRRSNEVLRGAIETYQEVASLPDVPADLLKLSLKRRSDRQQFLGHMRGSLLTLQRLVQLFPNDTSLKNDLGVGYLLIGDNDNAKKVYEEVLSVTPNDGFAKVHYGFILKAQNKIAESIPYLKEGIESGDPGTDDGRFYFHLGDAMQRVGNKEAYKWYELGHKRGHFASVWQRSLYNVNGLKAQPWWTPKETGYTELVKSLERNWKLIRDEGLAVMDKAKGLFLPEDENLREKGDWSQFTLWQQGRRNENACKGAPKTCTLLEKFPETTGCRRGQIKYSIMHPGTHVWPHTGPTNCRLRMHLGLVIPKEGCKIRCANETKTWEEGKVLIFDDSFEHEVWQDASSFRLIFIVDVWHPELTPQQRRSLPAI

His6-AspH315–758 = target: T2, His6-AspH315–758 (Homo sapiens, UniProt Q12797); assay: AspH differential scanning fluorimetry (DSF) assay, melting temperature shift; type: binding; conditions: 40 μM inhibitor, 4 μM His6-AspH315–758, with respect to DMSO controls; for ΔTm at 40 µM: read-out: Tm-shift (ΔTm) of AspH
T2 construct: A mixture of SYPRO orange (1‰v/v) and His6-AspH315–758 (4 μM) in 50 mM aqueous HEPES buffer; made in house; host or cells: Escherichia coli BL21 (DE3), pET-28a(+) vector
T2 sequence (Q12797 315-758): T1 sequence (Q12797 315-758)
Method: A mixture of SYPRO orange (1‰v/v) and His6-AspH315–758 (4 μM) in 50 mM aqueous HEPES buffer (pH 7.5, 150 mM NaCl, 50 μM NiCl2) was carefully pipetted into a 96-well VWR PCR-plate (38 μL per well). An inhibitor solution (0.8 mM in DMSO) or a negative control sample (pure DMSO) was added to each well (2 μL per well, final inhibitor concentration of 40 μM) and the resulting solutions were gently mixed using a pipette. The plate was sealed with optical tape (Bio-Rag, iCycler iQ), centrifuged (5 sec, 1000 rpm) and placed into a C1000Touch Thermal Cycler equipped with a CFX96 Real-Time System (Bio-Rad). The instrument was heated with a rate of 1 °C per cycle (starting at an initial temperature of 25 °C; 70 cycles total). Data were analyzed using Microsoft Excel and GraphPad Prism according to the literature.[107] DSF assays were performed in independent duplicates, each composed of technical duplicates (Supporting Fig. S4).

Bcl-XL = conditions: fluorescence polarisation, 30 nM enzyme concentration; cited from earlier work
[2] = 50 nM His6-AspH315–758, 1 μM hFX-CP101–119, 100 μM LAA, 3 μM 2OG, 2 μM FAS, 50 mM HEPES pH 7.5, 20 °C, read-out: IC50
[3] = read-out: IC50 at 10 μM substrate, 10 μM hFX-CP101–119 and 10 μM 2OG instead of 1 μM hFX-CP101–119 and 3 μM 2OG
[4] = read-out: IC50 at 20 μM Fe(II), 20 μM Fe(II) instead of 2 μM Fe(II)
[5] = read-out: IC50 at 200 μM 2OG, 200 μM 2OG instead of 3 μM 2OG
[6] = 50 nM His6-AspH315–758, 1 μM hFX-CP101–119, 100 μM LAA, 3 μM 2OG, 2 μM FAS, 50 mM HEPES pH 7.5, 20 °C
[7] = AspH-inhibitor screening, 384-well Plate 1, substrate conversion
[8] = AspH-inhibitor screening, Plate 1-duplicate
[9] = AspH-inhibitor screening, Plate 1-duplicate, substrate conversion

Plate 1 (% inhibition) ([1]; AspH-inhibitor screening) | Plate 1 (% conversion) [1, 7] | Plate 1-duplicate (% inhibition) [1, 8] | Plate 1-duplicate (% conversion) [1, 9] | Molecule | other results
97.05% | 4.94% | 97.31% | 3.78% | CC1(C)CCC(CN2CCN(c3ccc(C(=O)NS(=O)(=O)c4ccc(NCC5CCOCC5)c([N+](=O)[O-])c4)c(Oc4cnc5[nH]ccc5c4)c3)CC2)=C(c2ccc(Cl)cc2)C1 [Venetoclax, reference compound] | IC50 ([1]; 50 nM His6-AspH315–758, 1 μM hFX-CP101–119, 100 μM LAA, 3 μM 2OG, 2 μM FAS, 50 mM HEPES pH 7.5, 20 °C, listed as venetoclax, read-out: IC50): ~1400 nM; IC50 [1, 2]: 1400 ± 140 nM; remaining activity at 20 µM [1]: ~3%; inhibition at 20 µM [1, 6]: 97.2 ± 0.2%; selectivity for Bcl-2 over AspH ([1]; Bcl-2 inhibited more efficiently than AspH): ~ 1000 fold; Hill coefficient of AspH inhibition curves [1]: < -2.0; IC50 [1, 3]: 1570 ± 210 nM; IC50 [1, 4]: 1290 ± 240 nM; IC50 [1, 5]: 1520 ± 240 nM; ΔTm at 40 µM (His6-AspH315–758): 0.7 ± 0.3 °C
1.12% | 49.23% | -1.13% | 52.60% | CC(=O)c1c(C)c2cnc(Nc3ccc(N4CCNCC4)cn3)nc2n(C2CCCC2)c1=O [PD-0332991] | –
14.44% | 43.08% | 17.86% | 43.18% | Clc1ccc(C(c2ccccc2Cl)C(Cl)Cl)cc1 (stereo not drawn) [Mitotane] | –
-4.10% | 51.64% | -20.49% | 62.20% | CCN1CCN(c2ccc(Nc3cc(N(C)C(=O)Nc4c(Cl)c(OC)cc(OC)c4Cl)ncn3)cc2)CC1 [NVP-BGJ398] | –
-99.93% | 95.90% | -12.97% | 58.47% | C#Cc1cccc(Nc2ncnc3cc(OCCOC)c(OCCOC)cc23)c1 [Erlotinib hydrochloride] | –
-37.34% | 66.99% | -37.51% | 70.65% | COc1cc2ncnc(Nc3ccc(F)c(Cl)c3)c2cc1OCCCN1CCOCC1 [Gefitinib] | –
-1.17% | 50.29% | -2.15% | 53.11% | CCCCCCCCCCCCCCCCCCOP(=O)([O-])OC1CC[N+](C)(C)CC1 [Perifosine aq/PBS] | –

Second part, the molecule before the results:

Molecule | Plate 1 (% inhibition) ([1]; AspH-inhibitor screening) | Plate 1 (% conversion) [1, 7] | Plate 1-duplicate (% inhibition) [1, 8] | Plate 1-duplicate (% conversion) [1, 9] | other results
CN(C)CC[C@H](CSc1ccccc1)Nc1ccc(S(=O)(=O)NC(=O)c2ccc(N3CCN(Cc4ccccc4-c4ccc(Cl)cc4)CC3)cc2)cc1[N+](=O)[O-] [ABT-737, reference compound] | – | – | – | – | IC50 [1, 2]: 3380 ± 340 nM; IC50 [1, 3]: 2990 ± 350 nM; IC50 [1, 4]: 2920 ± 880 nM; IC50 [1, 5]: 4470 ± 1320 nM; ΔTm at 40 µM (His6-AspH315–758): 1.5 ± 0.1 °C
Mithramycin A [reference compound] | – | – | – | – | Tm-shift (ΔTm) of AspH (His6-AspH315–758): 0.4 ± 0.2 °C
Cc1cc2c(C(C)C)c(O)c(O)c(C=O)c2c(O)c1-c1c(C)cc2c(C(C)C)c(O)c(O)c(C=O)c2c1O [(R)-Gossypol, reference compound] | – | – | – | – | IC50 [1, 2]: 250 ± 10 nM; AspH inhibition at 20 μM [1, 6]: Complete suppression of AspH activity; inhibition at 20 µM [1, 6]: 101 ± 2.3%; IC50 [1, 3]: 330 ± 20 nM; IC50 [1, 4]: 260 ± 30 nM; IC50 [1, 5]: 250 ± 10 nM; IC50 (Bcl-XL): ~500 nM
CC1(C)CCC(c2ccc(Cl)cc2)=C(CN2CCN(c3ccc(C(=O)NS(=O)(=O)c4ccc(N[C@H](CCN5CCOCC5)CSc5ccccc5)c(S(=O)(=O)C(F)(F)F)c4)cc3)CC2)C1 [Navitoclax, reference compound] | – | – | – | – | IC50 ([1]; 50 nM His6-AspH315–758, 1 μM hFX-CP101–119, 100 μM LAA, 3 μM 2OG, 2 μM FAS, 50 mM HEPES pH 7.5, 20 °C, listed as navitoclax, read-out: IC50): ~1000 nM; IC50 [1, 2]: 1030 ± 120 nM; remaining activity at 20 µM [1]: ~10%; inhibition at 20 µM [1, 6]: 90.1 ± 0.1%; IC50 [1, 3]: 1210 ± 40 nM; IC50 [1, 4]: 800 ± 420 nM; IC50 [1, 5]: 1330 ± 170 nM; ΔTm at 40 µM (His6-AspH315–758): -2.1 ± 0.3 °C
O=C(O)c1ccnc(C(=O)O)c1 [2,4-PDCA, Pyridine-2,4-dicarboxylic acid, reference compound] | – | – | – | – | IC50 [1, 2]: 20 ± 10 nM; inhibition at 20 µM [1, 6]: 100 ± 0.6%; IC50 [1, 3]: 20 ± 10 nM; IC50 [1, 5]: 100 ± 30 nM; ΔTm at 40 µM (His6-AspH315–758): 3.2 ± 0.4 °C
O=C(/C=C/c1cccc(S(=O)(=O)Nc2ccccc2)c1)NO [Belinostat, reference compound] | – | – | – | – | IC50 [1, 2]: 7490 ± 1260 nM; AspH inhibition at 20 μM [1, 6]: 97.1 ± 0.2%; inhibition at 20 µM [1, 6]: > 90%; Hill coefficient of AspH inhibition curves [1]: < -2.0; IC50 [1, 3]: 4770 ± 100 nM; IC50 [1, 4]: 3100 ± 1440 nM; IC50 [1, 5]: 11200 ± 4000 nM; ΔTm at 40 µM (His6-AspH315–758): 0.1 ± 0.2 °C
O=C(O)CCCCC(CCSCc1ccccc1)SCc1ccccc1 (stereo not drawn) [CPI-613] | -2.25% | 50.79% | -2.45% | 53.26% | –
O=NN(CCCl)C(=O)NC1CCCCC1 [Lomustine] | 9.88% | 45.19% | 8.61% | 47.77% | –
CC(C)NC[C@@H](C(=O)N1CCN(c2ncnc3c2[C@H](C)C[C@H]3O)CC1)c1ccc(Cl)cc1 [GDC-0068] | -1.30% | 50.35% | 4.48% | 49.82% | –
COc1cc(O)c2c(c1)/C=C/C[C@H](O)[C@H](O)C(=O)/C=C\C[C@H](C)OC2=O [(5Z)-7-Oxozeaenol] | 21.38% | 39.88% | 23.66% | 40.31% | –
O=C(c1ccc(F)c(F)c1Nc1ccc(I)cc1F)N1CC(O)([C@@H]2CCCCN2)C1 [Cobimetinib] | -5.94% | 52.49% | -8.08% | 56.05% | –
CC[C@H](CO)Nc1nc(NCc2ccccc2)c2ncn(C(C)C)c2n1 [Roscovitine_Selicilib] | – | – | – | – | Plate 1 (% conversion) [1]: 48.67%; Plate 1-duplicate (% conversion) [1]: 50.17%
Nc1ncn([C@H]2C[C@H](O)[C@@H](CO)O2)c(=O)n1 [Decitabine (Dacogen)] | 4.17% | 47.83% | 0.31% | 51.89% | –
O=C(NC[C@H](O)CO)c1ccncc1Nc1ccc(I)cc1F [AS703026_Pimasertib] | 12.00% | 44.21% | 9.34% | 47.41% | –
